{"source": "PubChem BioAssay AID1259334", "about": "(Broad Institute, 2017)", "note": "Activity calls are given as the source filed them. Rule as the data show it: active = AC50 below about 11 µM.", "data": [{"assay": "TNFa signaling inhibitors in B cell line, dose response, counter-screen (AID 1259334);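 also: cells stimulated with TNFa after compound preincubation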", "settings": "B cell line, TNFa signaling counterscreen reporter; at 0.0005 µM; stronger effect = lower value", "values": [{"smiles": "CCN(CC(=O)Nc1ccc(NC(C)=O)cc1)C(=O)C1CCCN(C(=O)c2ccc(Cl)cc2)C1", "note": "(stereo unspecified)", "max activity": "-4.62% (inactive)"}]}, {"assay": "TNFa signaling inhibitors in B cell line, dose response, counter-screen (AID 1259334)", "settings": "B cell line, TNFa signaling counterscreen reporter; at 0.0015 µM; stronger effect = lower value", "values": [{"smiles": "Cc1ccc(-c2nn3c(C)nnc3c3ccccc23)cc1S(=O)(=O)NCc1ccccc1", "max activity": "9.48% (inactive)"}]}, {"assay": "TNFa signaling inhibitors in B cell line, dose response, counter-screen (AID 1259334)", "settings": "B cell line, TNFa signaling counterscreen reporter; at 0.0135 µM; stronger effect = lower value", "values": [{"smiles": "N#C[C@H]1[C@H](c2ccc(C#CC3CCCCC3)cc2)[C@H](CO)N1C(=O)Nc1ccc(F)cc1", "max activity": "9.39% (inactive)"}, {"smiles": "C[C@@H]1CN([C@@H](C)CO)C(=O)c2c(c3ccccc3n2C)-c2ccccc2CO[C@H]1CN(C)Cc1cccc(C(=O)Nc2ccccc2N)c1", "max activity": "9.96% (inactive)"}, {"smiles": "O=C1C=CC(=O)C2=C1C1c3ccccc3C2c2ccccc21", "max activity": "13% (inactive)"}, {"smiles": "C[C@@H]1CN([C@@H](C)CO)C(=O)Cc2cc(NS(=O)(=O)c3ccccc3)ccc2O[C@H]1CN(C)Cc1ccc(Cl)c(Cl)c1", "max activity": "16% (inactive)"}]}, {"assay": "TNFa signaling inhibitors in B cell line, dose response, counter-screen (AID 1259334)", "settings": "B cell line, TNFa signaling counterscreen reporter; at 0.12 µM; stronger effect = lower value", "values": [{"smiles": "CC12CN3CC(C)(CN(C1)C3c1ccc3c(c1)OCO3)C2=O", "note": "(stereo unspecified)", "max activity": "-17.3% (inactive)"}, {"smiles": "Cc1ccc(O)c(N=Nc2ccccc2)n1", "max activity": "62% (inactive)"}]}, {"assay": "TNFa signaling inhibitors in B cell line, dose response, counter-screen (AID 1259334)", "settings": "B cell line, TNFa signaling counterscreen reporter; at 0.135 µM; stronger effect = lower value", "values": [{"smiles": "N#C[C@H]1[C@H](c2ccc(C#CC3CCCCC3)cc2)[C@@H](CO)N1C(=O)Nc1ccc(F)cc1", "max activity": "9.41% (inactive)"}]}, {"assay": "TNFa signaling inhibitors in B cell line, dose response, counter-screen (AID 1259334)", "settings": "B cell line, TNFa signaling counterscreen reporter; at 0.38 µM; stronger effect = lower value", "values": [{"smiles": "c1ccc(CCSc2nccn2-c2ccccc2)cc1", "max activity": "38% (inactive)"}, {"smiles": "CC(C)NC(=O)N1CC(=O)N2[C@H](CO)[C@@H](c3ccc(/C=C/c4ccccc4)cc3)[C@H]2C1", "max activity": "-8.8% (inactive)"}, {"smiles": "Oc1cc(O)cc(/C=C/c2ccc(O)c(O)c2)c1", "max activity": "7.46% (inactive)"}]}, {"assay": "TNFa signaling inhibitors in B cell line, dose response, counter-screen (AID 1259334)", "settings": "B cell line, TNFa signaling counterscreen reporter; at 1.1 µM; stronger effect = lower value", "values": [{"smiles": "COc1ccc2c3c([nH]c2c1)[C@H](CO)N(C(=O)Nc1cccc(F)c1)CC31CCN(S(=O)(=O)c2cccc(C)c2)CC1", "max activity": "21.6% (inactive)"}, {"smiles": "C[C@@H]1CCCCO[C@@H](CN(C)S(=O)(=O)c2ccc(Cl)cc2)[C@H](C)CN([C@H](C)CO)C(=O)c2cc(NC(=O)Nc3ccc(C(F)(F)F)cc3)ccc2O1", "max activity": "17% (inactive)"}, {"smiles": "N=C(N)c1ccc(OCCCCCOc2ccc(C(=N)N)cc2)cc1", "max activity": "17.9% (inactive)"}, {"smiles": "COc1cccc(S(=O)(=O)N(C)C[C@@H]2OCc3ccccc3-c3c(n(C)c4ccccc34)C(=O)N([C@H](C)CO)C[C@@H]2C)c1", "max activity": "16.8% (inactive)"}, {"smiles": "CCCCC1C(=O)NC(=S)N(C)C1=O", "note": "(stereo unspecified)", "max activity": "-7.17% (inactive)"}, {"smiles": "NS(=O)(=O)c1nn2cc(-c3ccccc3)nc2s1", "max activity": "17.7% (inactive)"}, {"smiles": "Cc1noc(C)c1NC(=O)N(C)C[C@@H]1OCCCC[C@@H](C)Oc2ccc(NC(=O)Nc3ccc(C(F)(F)F)cc3)cc2C(=O)N([C@H](C)CO)C[C@H]1C", "max activity": "17% (inactive)"}, {"smiles": "N#C[C@@H]1[C@@H](c2ccccc2-c2ccccc2)[C@@H](CO)N1C(=O)NC1CCCC1", "max activity": "20.9% (inactive)"}]}, {"assay": "TNFa signaling inhibitors in B cell line, dose response, counter-screen (AID 1259334)", "settings": "B cell line, TNFa signaling counterscreen reporter; at 1.2 µM; stronger effect = lower value", "values": [{"smiles": "N#C[C@@H]1[C@@H](c2ccccc2-c2ccc(F)cc2)[C@H](CO)N1C(=O)NC1CCCCC1", "max activity": "18.3% (inactive)"}]}, {"assay": "TNFa signaling inhibitors in B cell line, dose response, counter-screen (AID 1259334)", "settings": "B cell line, TNFa signaling counterscreen reporter; at 3.5 µM; stronger effect = lower value", "values": [{"smiles": "CCSc1ccc(-c2cc(NC=O)c3ncc(-c4cccc(C(=O)N(C)C)c4)n3c2)cc1", "max activity": "45.8% (inactive)"}, {"smiles": "O=C1C(=NO)CCc2ccccc21", "max activity": "35.6% (inactive)"}, {"smiles": "Cc1ccc(OCCn2cnc3c(N)ncnc32)cc1", "max activity": "-11.4% (inactive)"}, {"smiles": "O=C(C[C@@H]1CC[C@H]2[C@@H](COC[C@@H](O)CN2Cc2cc(F)ccc2F)O1)NCc1ccc(Oc2ccccc2)cc1", "max activity": "-19.8% (inactive)"}, {"smiles": "Cc1ccc(C(CC(=O)NCc2ccco2)c2ccc(OC(C)C)cc2)cc1", "note": "(stereo unspecified)", "max activity": "36% (inactive)"}, {"smiles": "COc1ccc(S(=O)(=O)Nc2ccc3c(c2)C(=O)N([C@@H](C)CO)C[C@@H](C)[C@@H](CN(C)Cc2ccc(C(F)(F)F)cc2)OCCCC[C@H](C)O3)cc1", "max activity": "-16.5% (inactive)"}, {"smiles": "N#C[C@H]1[C@@H](c2ccc(C#CC3CCCCC3)cc2)[C@H](CO)N1C(=O)Nc1ccc(F)cc1", "max activity": "-11.6% (inactive)"}]}, {"assay": "TNFa signaling inhibitors in B cell line, dose response, counter-screen (AID 1259334)", "settings": "B cell line, TNFa signaling counterscreen reporter; at 10 µM; stronger effect = lower value", "values": [{"smiles": "Cc1noc(C)c1S(=O)(=O)N(C)C[C@H]1OCc2ccccc2-c2c(n(C)c3ccccc23)C(=O)N([C@H](C)CO)C[C@H]1C", "max activity": "-12.3% (inactive)"}, {"smiles": "CCc1cnc(N2[C@H](C#N)[C@@H](c3ccc(C#CC(C)C)cc3)[C@H]2CO)s1", "max activity": "16.5% (inactive)"}, {"smiles": "O=C(NCCC(c1ccccc1)c1ccco1)c1cccs1", "note": "(stereo unspecified)", "max activity": "46.8% (inactive)"}]}]}
